Data on two compounds can be found in ChEMBL document CHEMBL4428041, “Identification and SAR Evaluation of Hemozoin-Inhibiting Benzamides Active against Plasmodium falciparum” (J Med Chem, 2016).

Converted amounts (≈) assume the structure as drawn. The source made the active and inactive calls. The rule behind the calls is not given here.

Series [1] deals with Hemozoin. Description: Inhibition of beta-hematin.
For series [2], the system named is Hemozoin. Put plainly: Inhibition of beta-hematin in water/NP40/DMSO solution incubated for 5 to 6hrs by detergent-mediated pyridine-ferrichrome method.
Series [3] relates to Plasmodium falciparum. Description: Antimalarial activity against CQ-sensitive Plasmodium falciparum D10 infected in human type O+ erythrocytes assessed as growth inhibition incubated for 48 hrs by LDH assay. It is filed as functional, organism-based. Particulars: D10, 48 h.
Series [4] relates to Plasmodium falciparum. Description: Antimalarial activity against CQ-sensitive Plasmodium falciparum NF54 infected in human type O+ erythrocytes assessed as growth inhibition incubated for 48 hrs by LDH assay. It is filed as functional, organism-based. Particulars: NF54, 48 h.
In series [5] the test system is Hemozoin. Description: Inhibition of hemozoin formation in CQ-sensitive Plasmodium falciparum D10 infected in human type O+ erythrocytes assessed as increase in free heme incubated for 32 hrs by cell fractionation assay. It is filed as cell-based. Conditions: Erythrocyte.
In series [6] the test system is Hemozoin. Description: Inhibition of hemozoin formation in CQ-sensitive Plasmodium falciparum D10 infected in human type O+ erythrocytes assessed as decrease in hemozoin formation incubated for 32 hrs by cell fractionation assay. It is filed as cell-based. Particulars: Erythrocyte.
In series [7] the test system is Hemozoin. Put plainly: Inhibition of hemozoin formation in Plasmodium falciparum trophozoites infected in human erythrocytes assessed as induction of irregularly scattered and shapeless hemozoin clumps inside swollen digestive vacuole at 0.22 ug/ml incubated for 32 hrs by transmission electron microscopic analysis relative to control. The class given is cell-based. Conditions: Erythrocyte.

The nature of series [8]: Kinetic solubility of compound at pH 2 after 2 hrs by shake flask assay. The class given is physicochemical. Conditions: buffer, read-out: Kinetic_solubility.
Series [9] can be described thus: Kinetic solubility of compound in at pH 6.5 after 2 hrs by shake flask assay. The class given is physicochemical. Particulars: buffer, read-out: Kinetic_solubility.
Series [10] is described as follows: Kinetic solubility of compound FaSSIF at pH 6.5 after 2 hrs by shake flask assay. It is filed as physicochemical. Conditions: read-out: Kinetic_solubility.
The nature of series [11]: Half life in human liver microsomes at 0.1 uM in presence of NADPH by LC-MS/MS analysis. It is filed as ADME, Microsome. (Microsomes from liver hold many membrane-bound enzymes, among them those of drug oxidation.)
Series [12] can be described thus: Half life in rat liver microsomes at 0.1 uM in presence of NADPH by LC-MS/MS analysis. It is filed as ADME, Microsome.
Series [13] can be described thus: Half life in mouse liver microsomes at 0.1 uM in presence of NADPH by LC-MS/MS analysis. It is filed as ADME, Microsome.
A short description of series [14]: Clearance in human liver microsomes assessed per mg of protein at 0.1 uM by LC-MS/MS analysis. Particulars: read-out: CLH. The class given is ADME, Microsome.
The nature of series [15]: Clearance in rat liver microsomes assessed per mg of protein at 0.1 uM by LC-MS/MS analysis. Particulars: read-out: CLH. It is filed as ADME, Microsome.
Series [16] can be described thus: Clearance in mouse liver microsomes assessed per mg of protein at 0.1 uM by LC-MS/MS analysis. The class given is ADME, Microsome. Conditions: read-out: CLH.
Series [17] is described as follows: Extraction ratio in human liver microsomes assessed per mg of protein at 0.1 uM by LC-MS/MS analysis. It is filed as ADME, Microsome. Particulars: read-out: ERH.
Series [18] is described as follows: Extraction ratio in rat liver microsomes assessed per mg of protein at 0.1 uM by LC-MS/MS analysis. The class given is ADME, Microsome. Particulars: read-out: ERH.
Series [19] is described as follows: Extraction ratio in mouse liver microsomes assessed per mg of protein at 0.1 uM by LC-MS/MS analysis. The class given is ADME, Microsome. Particulars: read-out: ERH.
For series [20], the system named is Plasmodium falciparum. Description: Antimalarial activity against CQ-resistant Plasmodium falciparum K1 infected in human type O+ erythrocytes assessed as growth inhibition incubated for 48 hrs by LDH assay. It is filed as functional, organism-based. Particulars: K1, 48 h.
Series [21] has as its system CHO. Put plainly: Cytotoxicity against CHO cells by MTT assay. Conditions: Cricetulus griseus. It is filed as cell-based.
The nature of series [22]: Selectivity index, ratio of IC50 for cytotoxicity against CHO cells to IC50 for CQ-sensitive Plasmodium falciparum NF54 infected in human type O+ erythrocytes. It is filed as toxicity, cell-based. Particulars: Chinese hamster, read-out: Ratio IC50.

The IC50 is the concentration that gives 50% inhibition. Consider `CCN(CC)Cc1cc(Nc2ccnc3cc(Cl)ccc23)ccc1O` [AMODIAQUINE], for which, in series [1], the IC50 was 21 µM.

For orientation: half-life means the time in which the quantity being followed falls by half. For `CC(C)(C)c1cc(C(=O)Nc2cccnc2)cc(C(=O)Nc2cccnc2)c1`, the half-inhibitory concentration (IC50) in series [2] is 6.8 µM; in series [3], 0.7 µM; in [4], 0.6 µM; in [20], 1.7 µM; in series [21] it was 185 µM. Besides, the inhibition result in series [5] and in [6] was “Dose-dependent effect” throughout. In addition, the outcome in series [7] was Active. In addition, the solubility kinetic at 2 h in series [8] stood at 197 µM (≈ 73.8 µg/mL); in series [9], 92.7 µM (≈ 34.7 µg/mL); in series [10] it was 154 µM (≈ 57.5 µg/mL). Moreover, the half-life at 0.1 µM stood at 2.37 h in [11], 1.55 h in series [12] and 0.873 h in series [13]. Moreover, the values for the microsomal CLint at 0.1 µM in [14], in series [15] and in series [16] were 14.1 µL/min/mg, 33.5 µL/min/mg and 130 µL/min/mg, respectively. Moreover, the values for the hepatic extraction ratio at 0.1 µM in series [17], in series [18] and in series [19] were 0.4, 0.4 and 0.6, respectively. Moreover, the selectivity ratio in [22] stood at 308.
